Among the test systems are M14; RPMI-8226; A498; HCT-116; Hs-578T; IGROV-1; U-251; MCF7; BT-549; MDA-N; MDA-MB-231; SK-MEL-2; 786-0; CCRF-CEM; OVCAR-4; NCI-H460; SR; TK-10; OVCAR-8.
What all share (experiment): NCI anticancer screen, dose series, 48 h

The structures appear in SMILES notation.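 Each compound was tested at five concentrations against cells in 96-well plates for 48 hours. At the GI50, growth is halved.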 Activity calls are given as the source filed them. Cut-off read from the data, not from the text of the source: active = GI50 up to about 1.1 µM and inactive = higher.

As to `O=C(OCC1OC(n2nc(Cn3nnc(-c4cccnc4)n3)n(-c3cccc4ccccc34)c2=S)C(OC(=O)c2ccccc2)C1OC(=O)c1ccccc1)c1ccccc1` (stereo unspecified), the GI50 is 35.3 µM (inactive) in the assay on M14; > 100 µM (inactive) with RPMI-8226; > 100 µM (inactive) in the assay with A498; > 100 µM (inactive) with HCT-116; > 100 µM (inactive) in the assay with Hs-578T; > 100 µM (inactive) in the assay with IGROV-1. The GI50 was > 100 µM (inactive) in the assay with U-251; > 100 µM (inactive) with MCF7; > 100 µM (inactive) in the assay on BT-549; > 100 µM (inactive) in the assay with MDA-N; 53.8 µM (inactive) with MDA-MB-231; > 100 µM (inactive) in the assay with SK-MEL-2. For the same compound, the GI50 in the assay with 786-0, with CCRF-CEM, in the assay with OVCAR-4, in the assay on NCI-H460, in the assay on SR and in the assay on TK-10 was > 100 µM (inactive) in each case. Moreover, the GI50 in the assay with OVCAR-8 is > 100 µM (inactive).

On to `CCOc1ccc(/N=N/c2ccc3cc(/C(C)=N/NC(=O)/C(C#N)=C\c4ccc(N(CCC#N)CCC#N)cc4)c(=O)oc3c2)cc1`, for which the GI50 in the assay on M14, in the assay with RPMI-8226, in the assay with A498, with HCT-116, in the assay on Hs-578T and in the assay on IGROV-1 was > 10 µM (inactive) throughout. The GI50 with U-251, in the assay with MCF7, in the assay with BT-549, with MDA-N, in the assay with MDA-MB-231 and in the assay with SK-MEL-2 was > 10 µM (inactive) throughout. Besides, the GI50 in the assay with 786-0, with CCRF-CEM, with OVCAR-4, with NCI-H460, in the assay with SR and in the assay with TK-10 was > 10 µM (inactive) each time. In the assay on OVCAR-8, the GI50 was > 10 µM (inactive).

For `COC(=O)c1c(C)c2c(c(C)c1C(=O)OC)-c1c(C)ccc3ccc(C)c-2c13`, the GI50 in the assay with M14 is 21 µM (inactive); with RPMI-8226 it was 7.28 µM (inactive); in the assay on A498, > 72.6 µM (inactive); in the assay on HCT-116, 50.1 µM (inactive); in the assay on Hs-578T, 23.7 µM (inactive); with IGROV-1, 54 µM (inactive). Moreover, the GI50 in the assay on U-251 was 58.9 µM (inactive); in the assay with MCF7, > 78.3 µM (inactive); with BT-549, > 100 µM (inactive); in the assay on MDA-N, 61.5 µM (inactive); with MDA-MB-231, 3.94 µM (inactive); in the assay with SK-MEL-2, > 100 µM (inactive). Further, the GI50 is 19.1 µM (inactive) in the assay on 786-0; 11.4 µM (inactive) in the assay with CCRF-CEM; > 68.5 µM (inactive) in the assay on OVCAR-4; 18.6 µM (inactive) in the assay on NCI-H460; 6.78 µM (inactive) in the assay with SR; > 65.8 µM (inactive) with TK-10. The GI50 with OVCAR-8 was 47.1 µM (inactive).

With `COc1cc([C@@H]2c3cc4c(cc3[C@H](OC3OC5COC(C(C)C)OC5C(O)C3O)C3COC(=O)[C@@H]32)OCO4)cc(OC)c1O` (stereo partly specified), the GI50 is 11.4 µM (inactive) in the assay on M14; 5.2 µM (inactive) in the assay on RPMI-8226; 10.7 µM (inactive) in the assay with A498; 3.85 µM (inactive) in the assay with HCT-116; 9.71 µM (inactive) in the assay with Hs-578T; 5.21 µM (inactive) with IGROV-1. The GI50 was 2.53 µM (inactive) in the assay with U-251; 3.6 µM (inactive) in the assay with MCF7; 3.42 µM (inactive) with BT-549; 2.4 µM (inactive) with MDA-N; 14.1 µM (inactive) in the assay on MDA-MB-231; 17.3 µM (inactive) in the assay with SK-MEL-2. The GI50 with 786-0 was 10 µM (inactive); with CCRF-CEM it was 6.03 µM (inactive); in the assay with OVCAR-4 it was 15.1 µM (inactive); in the assay on NCI-H460, 2.04 µM (inactive); in the assay on SR, 1.47 µM (inactive); with TK-10 it was 23.5 µM (inactive). Also, the GI50 in the assay on OVCAR-8 is 9.31 µM (inactive).

Consider `N=C1OC(CN2CCN(c3ccccc3)CC2)CN1C(=O)Nc1ccccc1` (stereo unspecified), for which the GI50 in the assay with M14, with RPMI-8226, with A498, in the assay on HCT-116, in the assay on Hs-578T and with IGROV-1 was > 100 µM (inactive) in each case. The GI50 in the assay with U-251, with MCF7, with BT-549, in the assay with MDA-N, in the assay on MDA-MB-231 and in the assay on SK-MEL-2 was > 100 µM (inactive) throughout. Besides, the GI50 was > 100 µM (inactive) with 786-0; 43.3 µM (inactive) in the assay with CCRF-CEM; > 100 µM (inactive) with OVCAR-4; > 100 µM (inactive) in the assay with NCI-H460; 57.7 µM (inactive) with SR; > 100 µM (inactive) in the assay with TK-10. Also, in the assay with OVCAR-8, the GI50 is > 100 µM (inactive).

In the case of `O=c1c(-c2ccc3c(c2)OCO3)coc2c3c(ccc12)OCO3`, the GI50 in the assay on M14 was 30 µM (inactive); in the assay with RPMI-8226 it was > 100 µM (inactive); in the assay with A498, 29 µM (inactive); in the assay on HCT-116 it was 33 µM (inactive); with Hs-578T it was 22.3 µM (inactive); with IGROV-1, 20.8 µM (inactive). The GI50 in the assay on U-251 was 37.6 µM (inactive); in the assay with MCF7, 15.9 µM (inactive); with BT-549 it was 15.6 µM (inactive); in the assay on MDA-N, 93.5 µM (inactive); in the assay with MDA-MB-231, 21.5 µM (inactive); in the assay with SK-MEL-2 it was 95.9 µM (inactive). Besides, the GI50 is 19.4 µM (inactive) in the assay on 786-0; > 100 µM (inactive) in the assay with CCRF-CEM; 24.8 µM (inactive) in the assay with OVCAR-4; 17.2 µM (inactive) in the assay with NCI-H460; 40 µM (inactive) in the assay on SR; 19.1 µM (inactive) in the assay on TK-10.

Take `C=C1C2CCC3(CCC4C5(C)CCCC4(C=[N+](CCO)C5)C3C2)C1O` (stereo unspecified): the GI50 in the assay on M14, in the assay with RPMI-8226, in the assay on A498, in the assay with HCT-116, in the assay on Hs-578T and in the assay with IGROV-1 was > 100 µM (inactive) in each case. Besides, the GI50 with U-251, with MCF7, in the assay with BT-549, in the assay on MDA-N, in the assay with MDA-MB-231 and with SK-MEL-2 was > 100 µM (inactive) each time. Besides, the GI50 in the assay with 786-0, in the assay on CCRF-CEM, in the assay with OVCAR-4, in the assay with NCI-H460, in the assay on SR and in the assay with TK-10 was > 100 µM (inactive) each time. Besides, in the assay with OVCAR-8, the GI50 is > 100 µM (inactive).

`CC(C)(C)OC(=O)NCCCCC1NC(=O)[C@@H]2Cc3c([nH]c4ccccc34)C(C3CCCCC3)N2C1=O` (stereo partly specified): the GI50 in the assay with M14 was 22.9 µM (inactive); in the assay with RPMI-8226, 12.2 µM (inactive); in the assay on A498, > 100 µM (inactive); with HCT-116, 29.4 µM (inactive); in the assay on Hs-578T, 23.6 µM (inactive); in the assay with IGROV-1 it was 56.5 µM (inactive). In addition, the GI50 in the assay with U-251 was 31.5 µM (inactive); in the assay with MCF7, 30.6 µM (inactive); in the assay on BT-549, 47.6 µM (inactive); in the assay on MDA-N it was 25.4 µM (inactive); in the assay on MDA-MB-231, 31.6 µM (inactive); in the assay on SK-MEL-2, 26 µM (inactive). In addition, the GI50 in the assay on 786-0 is 27 µM (inactive); in the assay on OVCAR-4, 35.8 µM (inactive); with NCI-H460, 29.2 µM (inactive); in the assay with SR, 15.2 µM (inactive); with TK-10, 21.8 µM (inactive); in the assay with OVCAR-8, 43 µM (inactive).

Take `Cc1ccc2c(O)cc(-c3cccc4ccccc34)nc2n1`: the GI50 in the assay with M14 is 0.0247 µM (active); in the assay with RPMI-8226, 0.0227 µM (active); in the assay on A498, 0.0101 µM (active); with HCT-116, < 0.0151 µM (active); with Hs-578T, 0.043 µM (active); with IGROV-1, 0.0627 µM (active). Further, the GI50 with U-251 is 0.0166 µM (active); in the assay on MCF7, 0.0256 µM (active); in the assay with BT-549 it was 0.652 µM (active); with MDA-N it was < 0.01 µM (active); in the assay with MDA-MB-231 it was 0.0522 µM (active); in the assay on SK-MEL-2, 0.0182 µM (active). In addition, the GI50 was 0.0349 µM (active) with 786-0; 0.0251 µM (active) in the assay on CCRF-CEM; 0.495 µM (active) in the assay with OVCAR-4; 0.0342 µM (active) in the assay on NCI-H460; < 0.01 µM (active) with SR; 0.032 µM (active) in the assay with OVCAR-8.

For the compound `COc1ccc(C)c2c1N[C@](C)([C@]1(C)Nc3c(OC)ccc(C)c3C1=O)C2=O`, the GI50 in the assay with M14 was > 100 µM (inactive); with RPMI-8226 it was > 100 µM (inactive); in the assay on A498, > 100 µM (inactive); in the assay on HCT-116, > 100 µM (inactive); with Hs-578T, 39.3 µM (inactive); in the assay with IGROV-1, > 100 µM (inactive). The GI50 with U-251, in the assay with MCF7, in the assay on BT-549, in the assay on MDA-N, in the assay with MDA-MB-231 and in the assay on SK-MEL-2 was > 100 µM (inactive) in each case. Further, the GI50 in the assay with 786-0 was > 100 µM (inactive); with CCRF-CEM, > 100 µM (inactive); in the assay with OVCAR-4, > 100 µM (inactive); in the assay on NCI-H460, > 100 µM (inactive); in the assay with SR, > 100 µM (inactive); in the assay on OVCAR-8, 49.4 µM (inactive).

These data come from ChEMBL document CHEMBL1201862, “PubChem BioAssay data set” (2004).
